How the values were obtained:
human FAP-α = human FAP-α (Homo sapiens (Human), UniProt Q12884); assay: Competitive binding of radiolabeled compound to HT-1080-FAP cells against unlabeled compound; conditions: radiolabeled FAPI-01 (I-125) / FAPI-02 (Lu-177), HT-1080-FAP cells, 60 min; read-out: IC50 human FAP-α
Description: Competition experiments were performed by simultaneous exposure to unlabeled (10^−5 M to 10^−9M) and radiolabeled compound for 60 min. […] For internalization experiments, surface bound activity was removed by incubating the cells with 1 M glycine-HCl buffer for 10 min. The radioactivity was measured using a γ-counter, normalized to 1 mio cells and calculated as percentage of applied dose (% ID).
The medium was replaced by 1 mL fresh medium without fetal calf serum. […] Competition experiments were performed by simultaneous exposure to unlabeled (10^−5 M to 10^−9 M) and radiolabeled compound for 60 min. […] In all experiments, the cells were washed with 1 mL phosphate-buffered saline pH 7.4 for 2 times and subsequently lysed with 1.4 ml lysis buffer (0.3 M NaOH, 0.2% SDS). Radioactivity was determined in a γ-counter (Cobra II, Packard), normalized to 1 mio cells and calculated as percentage of the applied dose (% ID). Each experiment was performed 3 times, and 3 repetitions per independent experiment were acquired.

HT-1080-FAP cells = assay: Radioligand binding and internalization in HT-1080-FAP cells; type: cell-based, human
Description: Radioligand binding studies were performed using HT-1080-FAP cells. The radiolabeled compound was added to the cell culture and incubated for different time intervals ranging from 10 min to 24 h. Competition experiments were performed by simultaneous exposure to unlabeled (10^−5 M to 10^−9M) and radiolabeled compound for 60 min. For efflux experiments, radioactive medium was removed after incubation for 60 min and replaced by non-radioactive medium for time intervals ranging from 1 to 24 h. For internalization experiments, surface bound activity was removed by incubating the cells with 1 M glycine-HCl buffer for 10 min. The radioactivity was measured using a γ-counter, normalized to 1 mio cells and calculated as percentage of applied dose (% ID).
For radioligand binding studies, cells were seeded in 6-well plates and cultivated for 48 h to a final confluence of approx. 80-90% (1.2-2 mio cells/well). The medium was replaced by 1 mL fresh medium without fetal calf serum. The radiolabeled compound was added to the cell culture and incubated for different time intervals ranging from 10 min to 24 h. Competition experiments were performed by simultaneous exposure to unlabeled (10^−5 M to 10^−9 M) and radiolabeled compound for 60 min. For efflux experiments, radioactive medium was removed after incubation for 60 min and replaced by non-radioactive medium for time intervals ranging from 1 to 24 h. In all experiments, the cells were washed with 1 mL phosphate-buffered saline pH 7.4 for 2 times and subsequently lysed with 1.4 ml lysis buffer (0.3 M NaOH, 0.2% SDS). Radioactivity was determined in a γ-counter (Cobra II, Packard), normalized to 1 mio cells and calculated as percentage of the applied dose (% ID). Each experiment was performed 3 times, and 3 repetitions per independent experiment were acquired.
For internalization experiments the cells were incubated with the radiolabeled compound for 60 min at 37° C. and 4° C. Cellular uptake was terminated by removing medium from the cells and washing 2 times with 1 mL PBS. Subsequently, cells were incubated with 1 mL of glycine-HCl (1 Min PBS, pH 2.2) for 10 min at room temperature to remove the surface bound activity. The cells were washed with 2 mL of ice-cold PBS and lysed with 1.4 mL of lysis buffer to determine the internalized fraction. For the cells incubated at 4° C., all washing and elution steps were carried out using ice-cold buffers. The radioactivity was measured using a γ-counter, normalized to 1 mio cells and calculated as percentage of applied dose (% ID).

Capan-2 tumor xenografts [1] = assay: Dynamic small-animal PET, two-tissue compartment model, Capan-2 xenografts; type: in vivo, mouse; conditions: 68Ga-FAPI-02, Capan-2, − comp.
Description: (§1) For in vivo experiments, 8 week old BALB/c nu/nu mice (Charles River) were subcutaneously inoculated into the right trunk with 5×10^6 with HT-1080-FAP, Capan-2 or SK-LMS-1 cells, respectively. When the size of the tumor reached approximately 1 cm^3, the radiolabeled compound was injected via the tail vein (˜10 MBq for small-animal PET imaging; ˜1 MBq for organ distribution). PET imaging was performed up to 140 min after intravenous injection of 1 MBq of Ga-68 labeled compound per mouse using the Inveon PET small-animal PET scanner (Siemens). Images were reconstructed iteratively using the 3D-OSEM+MAP method and were converted to standardized uptake value (SUV) images. Quantification was done using a ROI technique and expressed as SUV mean. For organ distribution of Lu-177 labeled compound (approx. […] per mouse), the animals (n=3 for each time point) were sacrificed after indicated time points (from 30 min to 24 h). The distributed radioactivity was measured in all dissected organs and in blood using a γ-counter (Cobra Autogamma, Packard). The values are expressed as percentage of injected dose per gram of tissue (% ID/g).
For pharmakokinetic modeling the transport constant K1 and the rate constants k2-k4 were calculated using a two-tissue compartment model implemented in the PMOD software, taking into account the vascular fraction (vB), which is associated with the volume of blood exchanging with tissue in a VOI. The rate constants that describe the compartmental fluxes include k1 (binding to the receptor), k2 (detachment) as well as k3 (internalization) and k4 (efflux) in the tumor tissue. In this model the fractional volume of distribution (DV=K1/k2) is the proportion of the region of interest in which […] is distributed.

Capan-2 tumor xenografts [2] = assay: Organ distribution ex vivo in Capan-2 tumor bearing nude mice; design: species or system mouse; conditions: Lu-177 labeled, 1 h after i.v., Capan-2, mean ± SD, n = 3
Description: as §1

Chain of human FAP-α (Q12884 whole entry): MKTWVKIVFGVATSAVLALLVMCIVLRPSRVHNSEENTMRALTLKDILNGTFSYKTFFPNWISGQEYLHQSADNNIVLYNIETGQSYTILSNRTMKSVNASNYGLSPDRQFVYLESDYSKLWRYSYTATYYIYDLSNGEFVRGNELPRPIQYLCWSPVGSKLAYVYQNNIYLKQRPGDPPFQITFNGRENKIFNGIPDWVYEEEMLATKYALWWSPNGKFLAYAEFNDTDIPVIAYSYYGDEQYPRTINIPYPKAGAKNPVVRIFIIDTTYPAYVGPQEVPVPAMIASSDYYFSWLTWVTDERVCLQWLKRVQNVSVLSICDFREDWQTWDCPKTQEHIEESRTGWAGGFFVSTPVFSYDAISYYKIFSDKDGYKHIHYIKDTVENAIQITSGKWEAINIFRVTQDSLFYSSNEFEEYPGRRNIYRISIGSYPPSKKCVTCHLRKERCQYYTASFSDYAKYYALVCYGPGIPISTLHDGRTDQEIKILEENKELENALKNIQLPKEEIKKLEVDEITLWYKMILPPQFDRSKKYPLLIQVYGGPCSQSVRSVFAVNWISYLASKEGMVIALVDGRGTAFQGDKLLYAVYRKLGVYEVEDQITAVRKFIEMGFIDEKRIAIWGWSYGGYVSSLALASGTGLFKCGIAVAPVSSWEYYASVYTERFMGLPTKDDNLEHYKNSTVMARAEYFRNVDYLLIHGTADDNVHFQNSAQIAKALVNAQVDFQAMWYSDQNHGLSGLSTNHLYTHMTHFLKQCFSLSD

Q: For N#C[C@@H]1CCCN1C(=O)CNC(=O)c1ccnc2ccc(OCCCN3CCN(C(=O)CN4CCN(CC(=O)O)CCN(CC(=O)O)CCN(CC(=O)O)CC4)CC3)cc12 [FAPI-02], which IC50 (human FAP-α) is on record?
A: The IC50 was 21 nM.

Q: What about the “activity remaining after 24 h of incubation relative to initial radioactivity” value (HT-1080-FAP cells; 24 h incubation, FAPI-01 compared to binding after 10 min) of the same molecule?
A: The value was 34%.

Q: What about the “internalized proportion of uptake” value (HT-1080-FAP cells; Lu-177 labeled, after 60 min) of the same molecule?
A: The value was 96%.

Q: What about the “uptake into FAP-α expressing cells” value (HT-1080-FAP cells; Lu-177 labeled, after 60 min) of the same molecule?
A: Its value is 20.15±1.74 % ID.

Q: And the Flux (Capan-2 tumor xenografts [1])?
A: The Flux was 0.03 ml/ccm/min.

Q: And the “Vs (ratio of specific binding concentration to total parent at equilibrium)” value (Capan-2 tumor xenografts [1])?
A: The value was 0.93 ml/ccm.

Q: What about the “Vt (total distribution volume)” value (Capan-2 tumor xenografts [1]) of the same molecule?
A: The value was 1.44 ml/ccm.

Q: And the k1 (Capan-2 tumor xenografts [1])?
A: The k1 was 0.08 ml/ccm/min.

Q: And the k2 (Capan-2 tumor xenografts [1])?
A: Its k2 is 0.16 min⁻¹.

Q: What about the k3 (Capan-2 tumor xenografts [1]) of the same molecule?
A: The k3 was 0.08 min⁻¹.

Q: And the k4 (Capan-2 tumor xenografts [1])?
A: The k4 was 0.05 min⁻¹.

Q: What about the “vB (vascular fraction)” value (Capan-2 tumor xenografts [1]) of the same molecule?
A: Its value is 0.08 l/l.

Q: And the Blood uptake (Capan-2 tumor xenografts [2])?
A: The Blood uptake was 0.83 ± 0.127 % ID/g.

Q: What about the Brain uptake (Capan-2 tumor xenografts [2]) of the same molecule?
A: Its Brain uptake is 0.05 ± 0.010 % ID/g.

Q: What about the Heart uptake (Capan-2 tumor xenografts [2]) of the same molecule?
A: Its Heart uptake is 0.37 ± 0.031 % ID/g.

Q: And the Intestines uptake (Capan-2 tumor xenografts [2])?
A: Its Intestines uptake is 0.30 ± 0.064 % ID/g.

Q: And the Kidneys uptake (Capan-2 tumor xenografts [2])?
A: Its Kidneys uptake is 1.45 ± 0.106 % ID/g.

Q: What about the Liver uptake (Capan-2 tumor xenografts [2]) of the same molecule?
A: Its Liver uptake is 0.36 ± 0.015 % ID/g.

Q: And the Lungs uptake (Capan-2 tumor xenografts [2])?
A: Its Lungs uptake is 0.72 ± 0.021 % ID/g.

Q: And the Muscle uptake (Capan-2 tumor xenografts [2])?
A: The Muscle uptake was 0.94 ± 0.168 % ID/g.

Q: What about the Spleen uptake (Capan-2 tumor xenografts [2]) of the same molecule?
A: The Spleen uptake was 0.25 ± 0.015 % ID/g.

Q: What about the Tumor uptake (Capan-2 tumor xenografts [2]) of the same molecule?
A: Its Tumor uptake is 3.82 ± 0.390 % ID/g.

Source: patent publication US20250127937A1, “FAP INHIBITOR” (UNIVERSITÄT HEIDELBERG, priority 2018, published 2025)
